Values joined by “and” are separate entries in the source; they are usually repeats but may differ in a detail not shown here. Identical values can stand only once. Inconclusive results and toxic doses are left out. How the source made its calls: active means survival T/C of 150% or more; inactive means T/C below 125% in these data.
System: P388 leukemia ip, CD2F1 mice, survival T/C
Experiment: NCI In Vivo Anticancer Drug Screen. Data for tumor model P388 Leukemia (intraperitoneal) in CD2F1 (CDF1) mice
Settings: endpoint: median survival time, higher = longer survival
How it was run: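 Mice carrying the transplanted tumor received test compound or vehicle. Survival was recorded in each group, and the value is the treated-group measurement divided by that of the vehicle-treated control group.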

[1] = dose: 12.5 mg/kg/injection, schedule: Q01DX005 (ip), vehicle: Klucel (hydroxypropylcellulose) (HPC)
[2] = dose: 25.0 mg/kg/injection, schedule: Q01DX005 (ip), vehicle: Klucel (hydroxypropylcellulose) (HPC)
[3] = dose: 50.0 mg/kg/injection, schedule: Q01DX005 (ip), vehicle: Klucel (hydroxypropylcellulose) (HPC)
[4] = dose: 100.0 mg/kg/injection, schedule: Q01DX005 (ip), vehicle: Klucel (hydroxypropylcellulose) (HPC)
[5] = dose: 200.0 mg/kg/injection, schedule: Q01DX005 (ip), vehicle: Klucel (hydroxypropylcellulose) (HPC)
[6] = dose: 60.0 mg/kg/injection, schedule: Q01DX005 (ip), vehicle: Klucel (hydroxypropylcellulose) (HPC)
[7] = dose: 240.0 mg/kg/injection, schedule: Q01DX005 (ip), vehicle: Klucel (hydroxypropylcellulose) (HPC)
[8] = dose: 60.0 mg/kg/injection, schedule: Q01DX005 (ip), vehicle: saline with Tween-80
[9] = dose: 120.0 mg/kg/injection, schedule: Q01DX005 (ip), vehicle: saline with Tween-80
[10] = dose: 240.0 mg/kg/injection, schedule: Q01DX005 (ip), vehicle: saline with Tween-80
[11] = dose: 50.0 mg/kg/injection, schedule: Q01DX009 (ip), vehicle: Klucel (hydroxypropylcellulose) (HPC)
[12] = dose: 100.0 mg/kg/injection, schedule: Q01DX009 (ip), vehicle: Klucel (hydroxypropylcellulose) (HPC)
[13] = dose: 200.0 mg/kg/injection, schedule: Q01DX009 (ip), vehicle: Klucel (hydroxypropylcellulose) (HPC)
[14] = dose: 100.0 mg/kg/injection, schedule: Q04DX003 (ip), vehicle: saline with Tween-80
[15] = dose: 200.0 mg/kg/injection, schedule: Q04DX003 (ip), vehicle: saline with Tween-80
[16] = dose: 400.0 mg/kg/injection, schedule: Q04DX003 (ip), vehicle: saline with Tween-80
[17] = dose: 25.0 mg/kg/injection, schedule: Q01DX009 (ip), vehicle: other
[18] = dose: 50.0 mg/kg/injection, schedule: Q01DX009 (ip), vehicle: saline with Tween-80
[19] = dose: 100.0 mg/kg/injection, schedule: Q01DX009 (ip), vehicle: saline with Tween-80
[20] = dose: 200.0 mg/kg/injection, schedule: Q01DX009 (ip), vehicle: saline with Tween-80

Measured: T/C

Cc1cc2[n-]c1/C=c1\[n-]/c(c(CCC(=O)O)c1C)=C\c1[n-]c(c(C)c1CCC(=O)O)/C=c1/cc(C)/c([n-]1)=C/2.[Co]
inactive: [1] 98 % of control | [2] 101 % of control and 97 % of control | [3] 106 % of control

CCOC(=O)Nc1ccc(S(=O)(=O)c2ccc(Nc3ccnc4cc(Cl)ccc34)cc2)cc1
inactive: [3] 94 % of control | [4] 98 % of control | [5] 91 % of control

O=C(Nc1ccc(C(=O)c2ccccc2)cc1)Nc1ccc(Cl)c(Cl)c1
inactive: dose: 15.0 mg/kg/injection, schedule: Q01DX005 (ip), vehicle: Klucel (hydroxypropylcellulose) (HPC) 93 % of control | dose: 30.0 mg/kg/injection, schedule: Q01DX005 (ip), vehicle: Klucel (hydroxypropylcellulose) (HPC) 96 % of control | [6] 89 % of control | [7] 86 % of control

CCCCCCCC(=O)NC(CCSC)C(=O)O (centres undefined)
inactive: [3] 107 % of control | [4] 88 % of control | [5] 104 % of control

COc1c(I)c2c(c([N+](=O)[O-])c1OC)C(=O)OC2C1c2c(cc3c(c2OC)OCO3)CCN1C (centres undefined)
inactive: [2] 92 % of control | [3] 101 % of control | [4] 96 % of control | [5] 91 % of control

CC1(C)OC(COCCOCCOCCCC#N)C(COCCOCCOCCCC#N)O1 (centres undefined)
inactive: dose: 25.0 mg/kg/injection, schedule: Q01DX005 (ip), vehicle: saline 100 % of control | dose: 50.0 mg/kg/injection, schedule: Q01DX005 (ip), vehicle: saline 103 % of control | dose: 100.0 mg/kg/injection, schedule: Q01DX005 (ip), vehicle: saline 107 % of control | dose: 200.0 mg/kg/injection, schedule: Q01DX005 (ip), vehicle: saline 98 % of control

O=C(O)c1sc(-c2ccccc2)c2c1-c1ccccc1C2=O
inactive: [6] 98 % of control | dose: 120.0 mg/kg/injection, schedule: Q01DX005 (ip), vehicle: Klucel (hydroxypropylcellulose) (HPC) 96 % of control | [7] 97 % of control

CN(C)c1nnnn1-c1ccccc1
inactive: [8] 104 % of control | [9] 107 % of control | [10] 107 % of control

Cn1c2nc(-[n+]3ccccc3)nc-2c([O-])n(C)c1=O
inactive: dose: 100.0 mg/kg/injection, schedule: Q04DX003 (ip), vehicle: saline 94 % of control | dose: 200.0 mg/kg/injection, schedule: Q04DX003 (ip), vehicle: saline 100 % of control | dose: 400.0 mg/kg/injection, schedule: Q04DX003 (ip), vehicle: saline 100 % of control

O=C1CCC(NCCc2ccccc2)C(=O)O1 (centres undefined)
inactive: [11] 98 % of control | [12] 92 % of control | [13] 103 % of control

CN(C)c1nc(N/N=C/c2ccc([N+](=O)[O-])cc2)nc(N(C)C)n1
inactive: [14] 98 % of control | [15] 105 % of control | [16] 93 % of control

COc1cc2c(cc1OC)C[N+]1(C)CCc3cc(OC)c(OC)cc3C1C2 (centres undefined)
inactive: dose: 10.0 mg/kg/injection, schedule: Q01DX009 (ip), vehicle: saline 111 % of control | dose: 20.0 mg/kg/injection, schedule: Q01DX009 (ip), vehicle: saline 111 % of control

C=CCCn1nnc(-c2ccccc2)n1
inactive: dose: 25.0 mg/kg/injection, schedule: Q04DX003 (ip), vehicle: saline with Tween-80 102 % of control | dose: 50.0 mg/kg/injection, schedule: Q04DX003 (ip), vehicle: saline with Tween-80 96 % of control | [14] 100 % of control | [15] 104 % of control and 105 % of control | [16] 94 % of control

Cc1ccc(S(=O)(=O)NCCC(=O)Nc2ccccc2)cc1
inactive: [17] 102 % of control | dose: 50.0 mg/kg/injection, schedule: Q01DX009 (ip), vehicle: other 103 % of control | dose: 100.0 mg/kg/injection, schedule: Q01DX009 (ip), vehicle: other 103 % of control | dose: 200.0 mg/kg/injection, schedule: Q01DX009 (ip), vehicle: other 102 % of control | dose: 400.0 mg/kg/injection, schedule: Q01DX009 (ip), vehicle: other 96 % of control

O=[N+]([O-])O.O=[N+]([O-])O.[NH-]C1CCCC1[NH-].[Pt+2] (centres undefined)
active: dose: 6.25 mg/kg/injection, schedule: Q04DX002 (ip), vehicle: saline 180 % of control | dose: 12.5 mg/kg/injection, schedule: Q04DX002 (ip), vehicle: saline 180 % of control | dose: 12.5 mg/kg/injection, schedule: Q04DX002 (ip), vehicle: suspension in saline 184 % of control | dose: 25.0 mg/kg/injection, schedule: Q04DX002 (ip), vehicle: saline 197 % of control | dose: 25.0 mg/kg/injection, schedule: Q04DX002 (ip), vehicle: suspension in saline 202 % of control

[O-]c1cc2c3c(c1)c1cc4c(cc1c[n+]3C=C2)OCO4
inactive: [17] 123 % of control

Nc1ccc(SSc2ccc(Nc3ccnc4cc(Cl)ccc34)cc2)cc1
inactive: dose: 50.0 mg/kg/injection, schedule: Q01DX005 (ip), vehicle: saline with Tween-80 92 % of control | dose: 100.0 mg/kg/injection, schedule: Q01DX005 (ip), vehicle: saline with Tween-80 93 % of control | dose: 200.0 mg/kg/injection, schedule: Q01DX005 (ip), vehicle: saline with Tween-80 91 % of control

COC(=O)C1=C(C(=O)OC)C23C(=O)c4ccc(OC)c(OC)c4C1N2CCc1cc2c(cc13)OCO2 (centres undefined)
inactive: dose: 50.0 mg/kg/injection, schedule: Q04DX002 (ip), vehicle: saline with Tween-80 94 % of control | dose: 100.0 mg/kg/injection, schedule: Q04DX002 (ip), vehicle: saline with Tween-80 102 % of control | dose: 200.0 mg/kg/injection, schedule: Q04DX002 (ip), vehicle: saline with Tween-80 100 % of control

COc1nc(N(C)C)c2cnn(C3CCCCO3)c2n1 (centres undefined)
inactive: dose: 12.5 mg/kg/injection, schedule: Q04DX002 (ip), vehicle: saline with Tween-80 102 % of control | dose: 25.0 mg/kg/injection, schedule: Q04DX002 (ip), vehicle: saline with Tween-80 97 % of control

C[Si](C)(C)CCCn1cc(F)c(=O)n(CCC[Si](C)(C)C)c1=O
inactive: [8] 104 % of control | [9] 104 % of control | [10] 101 % of control

COc1ccc(C(C#N)N2CCCC2)cc1 (centres undefined)
inactive: dose: 6.25 mg/kg/injection, schedule: Q04DX003 (ip), vehicle: other 100 % of control | dose: 12.5 mg/kg/injection, schedule: Q04DX003 (ip), vehicle: other 100 % of control

CC(C)(C)SCC(NC(=O)OCC1c2ccccc2-c2ccccc21)C(=O)O (centres undefined)
inactive: [3] 100 % of control | [4] 100 % of control

COC(=O)c1c(/C(=N/Nc2ccc([N+](=O)[O-])cc2)[N+](=O)[O-])ssc1=N
inactive: [3] 103 % of control | [4] 97 % of control | [5] 103 % of control

CCOC(=O)C(CCC(C)(C)SCc1ccccc1)(NC(C)=O)C(=O)OCC
inactive: [18] 91 % of control | [19] 91 % of control | [20] 86 % of control

COc1cc2c3cc1Oc1c(OC)c(OC)cc4c1C(Cc1ccc(cc1)Oc1cc(ccc1O)CC3N(C)CC2)N(C)CC4 (centres undefined)
inactive: dose: 12.5 mg/kg/injection, schedule: Q01DX009 (ip), vehicle: Klucel (hydroxypropylcellulose) (HPC) 97 % of control | dose: 25.0 mg/kg/injection, schedule: Q01DX009 (ip), vehicle: Klucel (hydroxypropylcellulose) (HPC) 97 % of control | [11] 94 % of control | [12] 105 % of control

Cc1c(Cl)cccc1N=Cc1ccc(C=Nc2cccc(Cl)c2C)cc1
inactive: [11] 94 % of control | [12] 92 % of control | [13] 91 % of control

CCC/C=C1\OC(=O)c2ccccc21
inactive: dose: 12.5 mg/kg/injection, schedule: Q01DX009 (ip), vehicle: saline with Tween-80 104 % of control | dose: 25.0 mg/kg/injection, schedule: Q01DX009 (ip), vehicle: saline with Tween-80 100 % of control | [18] 104 % of control | [19] 100 % of control | [20] 114 % of control

O=C(O)C1CCCN1C(=O)OCC1c2ccccc2-c2ccccc21 (centres undefined)
inactive: [3] 99 % of control | [4] 99 % of control | [5] 95 % of control

CCCCN(CCCC)CCNc1ccc(C)c2sc3cc(Cl)ccc3c(=O)c12
inactive: [1] 95 % of control | [2] 101 % of control | [3] 99 % of control and 101 % of control | [4] 96 % of control
